Reference: US8252832B2, “Kinesin inhibitors as cancer therapeutics” (Novartis AG, priority 2007, dated 2012)
Read-outs that look alike come from different tables or passages of the source.

Tests used:
[1] = MV4; 11-luc disseminated disease model, host response; assay type: in vivo, mouse; conditions: q4d × 3, i.v
Description: The efficacy study in the disseminated disease model was performed using immunodeficient NOD-SCID female mice approximately 7-8 weeks old (Jackson Laboratories, Bar Harbor, Me.). […] Routine animal care and assurance of welfare were as described above. […] Doses were adjusted to each animal's body weight. […] Approximately 10 minutes prior to imaging, mice were injected i.p. with 150 mg/kg luciferin (Xenogen Corporation, Alameda, Calif.), followed by anesthetization with isoflurane. Photon emission was measured using a charge coupled device camera in the IVIS imaging system (Xenogen Corporation). Briefly, a gray-scale image of the mice was captured, followed by an overlay of a bioluminescence map representing the spatial distribution of photons detected from cleaved luciferin in the cancer cells expressing luciferase. Signal intensity was quantified using a customized version of the IGOR Pro version 4.09A Software (WaveMetrics, Inc., Lake Oswego, Oreg.) called Living Image version 2.50.2 (Xenogen). The sum of all detected photon counts from the dorsal+ventral views was determined. Bioluminescence of cancer cells in the animals was measured by imaging on designated days until the first mice developed hind limb paralysis due to disease burden, the main end point for when to humanely euthanize mice. The day of euthanasia for each mouse was recorded and the remaining percentage of mice surviving was plotted over time (Kaplan-Meier survival analysis). P values were calculated using the log-rank test (GraphPad Prism 4.0 software) to assess differences between treated and control groups (p<0.05 was considered significant). […] Data analysis was performed as described above.

[2] = system: cell lines derived from hematological malignancies; test: CellTiter-Glo, hematologic malignancy panel, mean of panel; assay type: cell-based
Description: Identification of tumor types that are the most sensitive to the KSP inhibitors of the present invention can be accomplished using an unbiased approach that uses several cell-based assays. The assays chosen were as follows: • CellTiter-Glo®. This is an assay designed to measure ATP concentration in a cell culture, and can be correlated to cell number. Briefly CellTiter-Glo® (Promega Corporation) is a homogeneous method using the single CellTiter-Glo® reagent to detect ATP wherein ATP in the assay drives the activity of a thermostable luciferase to create a luminescent signal which can then be measured and correlated with the number of viable cells. Briefly, for adherent cells, 1,000 to 5,000 cells/well were plated in 96-well plates (100 μl/well) and let to adhere for 24 hours before being treated with drug. For non-adherent cells, 1,000 to 10,000 cells/well were plated in 96-well plates (100 μl/well) and immediately treated with drug. Drug dilutions were prepared in DMSO at 1000 times the final concentration. These dilutions were then diluted 1/100 in growth media before being added to the cells (11 μl/well) to achieve the desired final concentration. […] The enzymatic reaction is coupled to a chemical reaction that uses a tetrazolium salt to form a formazan that is red and can be detected by its absorbance at 490 nm. […]

[3] = In vivo pharmacokinetic parameters (clearance, half-life, AUC)

CC(C)(C)[C@H](c1nc(-c2cc(F)ccc2F)cn1Cc1ccccc1)N(CC[C@H](N)CF)C(=O)CO [Compound IIa]
% Max. Δ body weight, (Day) ([1]; 0.25 mg/kg, D5): 5.6 ± 1.3% | Max. Δ body weight (g) (Day) ([1]; 0.25 mg/kg, D5): 1.1 ± 0.44 g | % Max. Δ body weight, (Day) ([1]; 0.5 mg/kg, D10): −2.6 ± 2.3% | Max. Δ body weight (g) (Day) ([1]; 0.5 mg/kg, D10): -0.57 ± 0.45 g | % Max. Δ body weight, (Day) ([1]; 1 mg/kg, D10): −4.2 ± 1.7% | Max. Δ body weight (g) (Day) ([1]; 1 mg/kg, D10): -0.77 ± 0.32 g | GI50 ([2]; GI50 in nM, read-out: Log(GI50), arithmetic mean of panel (converted)): 0.339 nM | GI50 ([2]; read-out: GI50, geometric mean of panel): 0.34 nM | AUC [3]: 1930 ng·h/mL | half-life [3]: 1.83 h | clearance ([3]; read-out: In vivo Clearance rate): 41 mL/min/kg
